Measured values: patent US10253002B2, “Compounds and methods of treating infections” (Neoculi Pty Ltd., priority 2013, dated 2019)
Converted amounts (≈) assume the structure as drawn. Like-named read-outs stand apart in the source and are kept apart here. Values belong to the compound of their own block, whether it stands above or below them.

Legend:
[1] = Bioassay ranking of the analogues tested; conditions: M + R (MRSA and VRE combined)
VRE = assay: Broth microdilution MIC, Example 7 (NCL812 and analogues); assay type: cell-based, Enterococcus spp.; conditions: for activity against VRE among analogues: MIC testing, two VRE strains; for VRE / MIC: bioassay ranking, VRE; for MIC: Enterococcus, read-out: VRE
Summary of the method: (§1)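 MICs in μg/ml were read as growth inhibition by eye, checked at 600 nm absorbance against drug-free wells, following CLSI broth microdilution. Strains: two MRSA, two VRE; duplicates, repeated once more when results diverged beyond one dilution step.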

MRSA = assay: as above; assay type: cell-based, Staphylococcus aureus; conditions: for activity against MRSA among analogues: MIC testing, two MRSA strains; for MRSA / MIC: bioassay ranking, MRSA; for MIC: Staphylococcus aureus, read-out: MRSA
Summary of the method: as §1

[2] = system: Staphylococcus pseudintermedius isolates (MSSP and MRSP); assay: Disk diffusion and Epsilometer susceptibility testing, Example 6; assay type: cell-based; conditions: for MIC: Staphylococcus pseudintermedius
[3] = system: S. aureus isolates (HA-MRSA, CA-MRSA, methicillin-susceptible staphylococci); assay: Kirby-Bauer disc diffusion resistotyping, Example 4; assay type: cell-based, Staphylococcus aureus
Protocol: Antibiotic-susceptibility profiling of the isolate collection was undertaken using Kirby-Bauer disc diffusion, as recommended by the Clinical and Laboratory Standards Institute (CLSI) on Mueller-Hinton agar. Isolates were grown overnight on SBA at 37° C. Colonies were suspended in physiological saline. Turbidity was adjusted to a 0.5 McFarland standard and suspensions were spread over the medium. Antibiotic discs according to Table 9 below were transferred onto the inoculated medium and analysed after 24 h incubation at 37° C.

S. pneumoniae isolates = assay: Disk diffusion susceptibility (CLSI/EUCAST), Example 5; assay type: cell-based, Streptococcus pneumoniae
Protocol: Isolate susceptibility to 12 different antimicrobials (Table 16) was determined by CLSI and European Committee on Antimicrobial Susceptibility Testing (EUCAST) methods. Antimicrobials were selected based upon the CLSI and EUCAST guidelines. Standardised bacterial suspensions were spread onto MHSBA using a sterile cotton swab. Bacterial suspensions from of Streptococcus pneumoniae were standardised to an OD6O0 between 0.08 and 0.1 using a spectrophotometer and then diluted 1:20. Bacterial colonies were taken from an O/N horse blood agar plate. To ensure the purity of the 1:20 bacterial suspension, 50 μL was spread plated onto horse blood agar and incubated O/N at 37° C. with 5% CO2. The CFU was calculated and compared to the initial plate counts. Antibiotic disks (Purchased from Sigma Aldrich) were placed using a disk dispenser (Purchased from Oxoid) according to CLSI standards. MHSBA plates were incubated for 16 h-24 h at 37° C. in 5% CO2. Zones of complete inhibition were measured in triplicate to the nearest millimeter using a ruler on natural light-reflected growth, and the mode was represented as the diameter for each isolate. Pneumococcal isolates were categorised as sensitive, intermediate (I) or resistant (R) by CLSI standards and quality control (QC) ranges (Table 16).

SMILES: CC(C)c1ccc(/C=N/NC(=N)N/N=C/c2ccc(C(C)C)cc2)cc1.Cl [NCL120]
M + R [1]: 6 µg/mL
activity against VRE among analogues (VRE): greatest activity
VRE (VRE): 5 µg/mL
activity against MRSA among analogues (MRSA): greatest activity
MRSA (MRSA): 7 µg/mL

SMILES: CCCc1ccc(C=NNC(=N)NN=Cc2ccc(CCC)cc2)cc1.Cl [NCL121]
M + R [1]: 30 µg/mL
activity against VRE among analogues (VRE): greatest activity
VRE (VRE): 28 µg/mL
activity against MRSA among analogues (MRSA): greatest activity
MRSA (MRSA): 32 µg/mL

SMILES: Cl.N=C(NN=Cc1ccc(F)c(F)c1)NN=Cc1ccc(F)c(F)c1 [NCL123]
M + R [1]: 9.5 µg/mL
activity against VRE among analogues (VRE): greatest activity
VRE (VRE): 4 µg/mL
activity against MRSA among analogues (MRSA): greatest activity
MRSA (MRSA): 15 µg/mL

SMILES: CC(=NNC(=N)NN=C(C)c1ccccc1)c1ccccc1.Cl [NCL143]
M + R [1]: 12 µg/mL
activity against VRE among analogues (VRE): greatest activity
VRE (VRE): 8 µg/mL
activity against MRSA among analogues (MRSA): greatest activity
MRSA (MRSA): 16 µg/mL

SMILES: Cl.N=C(NN=Cc1ccc2[nH]ccc2c1)NN=Cc1ccc2[nH]ccc2c1 [NCL146]
M + R [1]: 14 µg/mL
activity against VRE among analogues (VRE): greatest activity
VRE (VRE): 16 µg/mL
activity against MRSA among analogues (MRSA): greatest activity
MRSA (MRSA): 12 µg/mL

SMILES: CCC(=NNC(=N)NN=C(CC)c1ccc(Cl)cc1)c1ccc(Cl)cc1.Cl [NCL153]
M + R [1]: 16 µg/mL
activity against VRE among analogues (VRE): greatest activity
VRE (VRE): 8 µg/mL
activity against MRSA among analogues (MRSA): greatest activity
MRSA (MRSA): 24 µg/mL

SMILES: C/C(=N\NC(=N)N/N=C(\C)c1ccc(Br)cc1)c1ccc(Br)cc1.Cl [NCL155]
M + R [1]: 10 µg/mL
activity against VRE among analogues (VRE): greatest activity
VRE (VRE): 12 µg/mL
activity against MRSA among analogues (MRSA): greatest activity
MRSA (MRSA): 8 µg/mL

MIC (VRE): 2.5 µg/mL
MIC (MRSA): 2 µg/mL
SMILES: Cl.N=C(NN=Cc1ccc(Cl)cc1N)NN=Cc1ccc(Cl)cc1N [NCL157, 2,2′-bis[(2-amino-4-chlorophenyl)methylene]carbonimidic Dihydrazide Hydrochloride]
M + R [1]: 2.25 µg/mL
activity against VRE among analogues (VRE): greatest activity
activity against MRSA among analogues (MRSA): greatest activity

MIC (VRE): 4 µg/mL (≈ 9.47 µM)
MIC (MRSA): 4 µg/mL (≈ 9.47 µM)
SMILES: CC/C(=N\NC(=N)N/N=C(\CC)c1ccc(Cl)cc1O)c1ccc(Cl)cc1O [NCL158]
M + R [1]: 4 µg/mL
activity against VRE among analogues (VRE): greatest activity
activity against MRSA among analogues (MRSA): greatest activity

SMILES: CC(O)Nc1cc(Cl)ccc1C=NNC(=N)NN=Cc1ccc(Cl)cc1NC(C)O.Cl (stereo not drawn) [NCL168]
M + R [1]: 40 µg/mL
activity against VRE among analogues (VRE): greatest activity
activity against MRSA among analogues (MRSA): greatest activity

SMILES: N=C(NN=Cc1ccc(Cl)cc1N)NN=Cc1ccc(Cl)cc1N [NCL169]
M + R [1]: 40 µg/mL
activity against VRE among analogues (VRE): greatest activity
VRE (VRE): 32 µg/mL
activity against MRSA among analogues (MRSA): greatest activity

SMILES: Cc1onc(-c2ccccc2)c1C(=O)N[C@@H]1C(=O)N2[C@@H]1SC(C)(C)[C@@H]2C(=O)O [Oxacillin]
disc diffusion zone, all MRSP isolates resistant ([2]; 13 MRSP isolates): ≤ 17 mm
MIC ([2]; 13 MRSP isolates, read-out: E-test MIC, all MRSP isolates resistant): ≥ 0.5 µg/mL
MIC ([2]; isolate S1P1, read-out: Etest MIC): > 256 µg/mL
MIC ([2]; isolate S2P2, read-out: Etest MIC): > 256 µg/mL
MIC ([2]; isolate S3P3, read-out: Etest MIC): > 256 µg/mL
MIC ([2]; isolate S4P4, read-out: Etest MIC): 2 µg/mL (≈ 4.98 µM)
MIC ([2]; isolate S5P5, read-out: Etest MIC): 4 µg/mL (≈ 9.96 µM)
MIC ([2]; isolate S6P6, read-out: Etest MIC): > 256 µg/mL
MIC ([2]; isolate S7P7, read-out: Etest MIC): > 256 µg/mL
MIC ([2]; isolate S8P8, read-out: Etest MIC): > 256 µg/mL
MIC ([2]; isolate S9P9, read-out: Etest MIC): 4 µg/mL (≈ 9.96 µM)
MIC ([2]; isolate S10P10, read-out: Etest MIC): > 256 µg/mL
MIC ([2]; isolate S11P11, read-out: Etest MIC): > 256 µg/mL
MIC ([2]; isolate S12P12, read-out: Etest MIC): 1.5 µg/mL (≈ 3.74 µM)
MIC ([2]; isolate S13P13, read-out: Etest MIC): 0.125 µg/mL (≈ 0.311 µM)
MIC ([2]; isolate S14P14, read-out: Etest MIC): 0.25 µg/mL (≈ 0.623 µM)
MIC ([2]; isolate S15P15, read-out: Etest MIC): 0.25 µg/mL (≈ 0.623 µM)
MIC ([2]; isolate S16P16, read-out: Etest MIC): 0.19 µg/mL (≈ 0.473 µM)
MIC ([2]; isolate S17P17, read-out: Etest MIC): 0.25 µg/mL (≈ 0.623 µM)
MIC ([2]; isolate S18P18, read-out: Etest MIC): 0.25 µg/mL (≈ 0.623 µM)
MIC ([2]; isolate S19P19, read-out: Etest MIC): 0.25 µg/mL (≈ 0.623 µM)
MIC ([2]; isolate S20P20, read-out: Etest MIC): 0.25 µg/mL (≈ 0.623 µM)
MIC ([2]; isolate S21P21, read-out: Etest MIC): 0.125 µg/mL (≈ 0.311 µM)
MIC ([2]; isolate S22P22, read-out: Etest MIC): 0.25 µg/mL (≈ 0.623 µM)
MIC ([2]; isolate S23P23, read-out: Etest MIC): 1.5 µg/mL (≈ 3.74 µM)
ZD ([2]; isolate S1P1): 0 mm
ZD, Adl ([2]; isolate S1P1): 0 mm
ZD ([2]; isolate S2P2): 0 mm
ZD, Adl ([2]; isolate S2P2): 0 mm
ZD ([2]; isolate S3P3): 0 mm
ZD, Adl ([2]; isolate S3P3): 0 mm
ZD ([2]; isolate S4P4): 0 mm
ZD, Adl ([2]; isolate S4P4): 0 mm
ZD ([2]; isolate S5P5): 0 mm
ZD, Adl ([2]; isolate S5P5): 0 mm
ZD ([2]; isolate S6P6): 0 mm
ZD, Adl ([2]; isolate S6P6): 0 mm
ZD ([2]; isolate S7P7): 0 mm
ZD, Adl ([2]; isolate S7P7): 0 mm
ZD ([2]; isolate S8P8): 0 mm
ZD, Adl ([2]; isolate S8P8): 0 mm
ZD ([2]; isolate S9P9): 0 mm
ZD, Adl ([2]; isolate S9P9): 0 mm
ZD ([2]; isolate S10P10): 0 mm
ZD, Adl ([2]; isolate S10P10): 0 mm
ZD ([2]; isolate S11P11): 0 mm
ZD, Adl ([2]; isolate S11P11): 0 mm
ZD ([2]; isolate S12P12): 13 mm
ZD, Adl ([2]; isolate S12P12): 16 mm
ZD ([2]; isolate S13P13): 26 mm
ZD, Adl ([2]; isolate S13P13): 36 mm
ZD ([2]; isolate S14P14): 22 mm
ZD, Adl ([2]; isolate S14P14): 29 mm
ZD ([2]; isolate S15P15): 22 mm
ZD, Adl ([2]; isolate S15P15): 25 mm
ZD ([2]; isolate S16P16): 26 mm
ZD, Adl ([2]; isolate S16P16): 34 mm
ZD ([2]; isolate S17P17): 22 mm
ZD, Adl ([2]; isolate S17P17): 26 mm
ZD ([2]; isolate S18P18): 22 mm
ZD, Adl ([2]; isolate S18P18): 30 mm
ZD ([2]; isolate S19P19): 25 mm
ZD, Adl ([2]; isolate S19P19): 32 mm
ZD ([2]; isolate S20P20): 23 mm
ZD, Adl ([2]; isolate S20P20): 30 mm
ZD ([2]; isolate S21P21): 27 mm
ZD, Adl ([2]; isolate S21P21): 37 mm
ZD ([2]; isolate S22P22): 21 mm
ZD, Adl ([2]; isolate S22P22): 26 mm
ZD ([2]; isolate S23P23): 13 mm
ZD, Adl ([2]; isolate S23P23): 14 mm
isolates resistant (Kirby-Bauer disc diffusion) ([3]; CA-MRSA (n = 10)): 10.00%
isolates resistant (Kirby-Bauer disc diffusion) ([3]; HA-MRSA (n = 10)): 80.00%
isolates resistant (Kirby-Bauer disc diffusion) ([3]; Methicillin-susceptible staphylococci (n = 10)): 0.00%
resistant isolates, number (percentage) ([3]; Unclassified (n = 2), Overall): 2 (100%)
Total isolates resistant (Kirby-Bauer disc diffusion) ([3]; all isolates (n = 30)): 30.00%
resistant isolates, number (percentage) ([3]; mec gene complex A (n = 4), Overall): 4 (100%)
resistant isolates, number (percentage) ([3]; mec gene complex A (n = 4), SCCmec type II): 3 (100%)
resistant isolates, number (percentage) ([3]; mec gene complex A (n = 4), SCCmec type III): 1 (100%)
resistant isolates, number (percentage) ([3]; mec gene complex B (n = 10), Overall): 2 (20%)
resistant isolates, number (percentage) ([3]; mec gene complex B (n = 10), SCCmec type I): 1 (50%)
resistant isolates, number (percentage) ([3]; mec gene complex B (n = 10), SCCmec type IV): 1 (12.5%)
resistant isolates, number (percentage) ([3]; mec gene complex C2 (n = 4), Overall): 1 (25%)
resistant isolates, number (percentage) ([3]; mec gene complex C2 (n = 4), SCCmec type V): 1 (25%)
disk diffusion zone diameter (S. pneumoniae isolates; A66.1): 28 mm
disk diffusion zone diameter (S. pneumoniae isolates; D39): 26 mm
disk diffusion zone diameter (S. pneumoniae isolates; EF3030): 18 mm
disk diffusion zone diameter (S. pneumoniae isolates; L82016): 29 mm
disk diffusion zone diameter (S. pneumoniae isolates; P9): 26 mm
disk diffusion zone diameter (S. pneumoniae isolates; P21): 28 mm
disk diffusion zone diameter (S. pneumoniae isolates; TIGR4): 26 mm
disk diffusion zone diameter (S. pneumoniae isolates; WCH16): 30 mm
disk diffusion zone diameter (S. pneumoniae isolates; WCH43): 26 mm
disk diffusion zone diameter (S. pneumoniae isolates; WCH46): 27 mm
disk diffusion zone diameter (S. pneumoniae isolates; WCH57): 32 mm
disk diffusion zone diameter (S. pneumoniae isolates; WCH77): 28 mm
disk diffusion zone diameter (S. pneumoniae isolates; WCH86): 34 mm
disk diffusion zone diameter (S. pneumoniae isolates; WCH89): 29 mm
disk diffusion zone diameter (S. pneumoniae isolates; WCH92): 25 mm
disk diffusion zone diameter (S. pneumoniae isolates; WCH137): 29 mm
disk diffusion zone diameter (S. pneumoniae isolates; WCH158): 28 mm
disk diffusion zone diameter (S. pneumoniae isolates; WCH184): 11 mm
disk diffusion zone diameter (S. pneumoniae isolates; WCH211): 25 mm
disk diffusion zone diameter (S. pneumoniae isolates; WU2): 28 mm
